Source: paper PMC11721672, “Design, Structure–Activity Relationships, and Computational Modeling Studies of a Series of α-Helix Biased, Ultra-Short Glucagon-like Peptide-1 Receptor Agonists” (Molecules, 2024)
Where two headings read alike, the source gives them in different places. Square brackets hold non-standard residues; d marks the D form. Peptide text beside a SMILES is read from it. Bip = N[C@@H](Cc1ccc(-c2ccccc2)cc1)C(=O)O; αMePhe(2-F) = C[C@](N)(Cc1ccccc1F)C(=O)O; Phe(2-F) = N[C@@H](Cc1ccccc1F)C(=O)O; αMeF = C[C@](N)(Cc1ccccc1)C(=O)O; Aib = CC(C)(N)C(=O)O

Target: T1, hGLP1 receptor (Homo sapiens, UniProt P43220)
T1 construct: expressed in transfected cells; host or cells: HEK (human embryonic kidney) cells co-expressing hGLP1 receptor and CRE-Luciferase
T1 sequence (P43220 24-463): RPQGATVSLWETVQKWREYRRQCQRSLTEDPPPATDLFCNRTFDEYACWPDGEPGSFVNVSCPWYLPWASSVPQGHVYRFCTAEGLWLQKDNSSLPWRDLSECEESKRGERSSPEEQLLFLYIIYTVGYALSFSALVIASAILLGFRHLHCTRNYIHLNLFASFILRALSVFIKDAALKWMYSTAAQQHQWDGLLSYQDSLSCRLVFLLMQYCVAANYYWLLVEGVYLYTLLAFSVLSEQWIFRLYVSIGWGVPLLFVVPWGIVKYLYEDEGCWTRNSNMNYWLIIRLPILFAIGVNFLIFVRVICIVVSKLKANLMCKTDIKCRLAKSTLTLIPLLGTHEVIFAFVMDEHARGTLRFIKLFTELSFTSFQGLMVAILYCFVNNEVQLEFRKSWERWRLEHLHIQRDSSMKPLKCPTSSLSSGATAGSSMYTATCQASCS
Test: GLP-1 receptor agonism assay (HTRF cAMP, HEK cells co-expressing hGLP1 receptor and CRE-Luciferase)
Type: cell-based
Settings: for Emax: HEK293, Table 6 potency profile; for EC50: read-out: cAMP EC50; for decreased potency (Aib/Ala comparison): versus respective parent analog; for decreased potency by Aib substitution: Aib-scanning, versus parent analog RXL-101; for dpEC50 (contribution of Cα-methylation): dpEC50 = pEC50 (Aib) − pEC50 (Ala) − 0.97, Aib peptide versus the Ala peptide of the same line
Description: Human embryonic kidney cells (HEK) co-expressing the hGLP1 receptor and CRE-Luciferase construct were used to determine agonist potency in this assay. The cells were thawed briefly at 37 °C, transferred to a sterile tube, and re-suspended in complete media at 37 °C. Cells were centrifuged at 1000 rpm for 5 min and collected; the cells were then re-suspended in an assay buffer consisting of Dulbecco’s phosphate-buffered saline (DPBS, GIBCO) with 500 μM of the phosphodiesterase inhibitor 3-isobutyl-1-methylxanthine (IBMX). The assay medium had 0% serum albumin, as specified in Table 1, Table 2, Table 3 and Table 4. The optimal cell density was determined to be 1000 cells/well. Cells were added to wells in 384-well plates containing appropriate pre-prepared dilutions of compounds (test peptides or reference compound exendin-4), sealed, and incubated with CO2 for 30 min. Test peptide solutions were diluted from 10 mM stock solutions to be used in two separate runs (performed in triplicate) from a maximal concentration of 1.0 μM, with 11 concentrations tested for each peptide using serial 1:3 dilution from this maximal concentration. […] The agonist assay was a homogeneous time-resolved fluorescence (HTRF) assay (Cisbio). Following incubation of the cells for 30 min with test or reference peptides, 5 μL of the cAMP acceptor cAMP-d2, prepared previously as a working solution from frozen stock (1:20 dilution), was added to each well of the assay plate along with 5 μL of anti-cAMP antibody-cryptate working solution (diluted 1:20 from frozen stock). The wells were incubated for 1 h at room temperature, and fluorescence was then read at 665 and 615 nm with an Envision reader with a TRF laser. Data were saved and analyzed using Prism software (GraphPad). Concentration–response analysis was performed using 4-parameter logistic fits of the resulting data, and EC50 values were obtained for each test and reference compound.

[1] = Table 2, Ala-scanning, 0% HSA, >1000 nM = out of range
[2] = Table 1, Phe6 modifications, 0% HSA, average of two independent experiments in triplicate (RXL-3039 tested once)

C[C@H](NC(=O)[C@H](CC(=O)O)NC(=O)[C@H](CO)NC(=O)[C@@H](NC(=O)[C@H](Cc1ccccc1F)NC(=O)[C@@H](NC(=O)CNC(=O)[C@H](CCC(=O)O)NC(=O)C(C)(C)NC(=O)[C@@H](N)Cc1c[nH]cn1)[C@@H](C)O)[C@@H](C)O)C(=O)N[C@@H](Cc1ccc(-c2ccccc2)cc1)C(N)=O [RXL-3008, His-Aib-Glu-Gly-Thr-Phe(2-F)-Thr-Ser-Asp-Ala-Bip-NH2] (H-H[Aib]EGT[Phe(2-F)]TSDA[Bip]-NH2)
decreased potency by Ala substitution in RXL-3000 (Ala-scanning, versus RXL-3000): > 1000 fold
Emax: 43.6%
EC50 [1]: > 1000 nM
decreased potency (Aib/Ala comparison): > 10,000 fold

C[C@@H](O)[C@H](NC(=O)CNC(=O)[C@H](CCC(=O)O)NC(=O)C(C)(C)NC(=O)[C@@H](N)Cc1c[nH]cn1)C(=O)N[C@@H](Cc1ccccc1C#N)C(=O)N[C@H](C(=O)N[C@@H](CO)C(=O)N[C@@H](CC(=O)O)C(=O)N[C@@H](Cc1ccc(-c2ccccc2)cc1)C(=O)N[C@@H](Cc1ccc(-c2ccccc2)cc1)C(N)=O)[C@@H](C)O [RXL-3015, His-Aib-Glu-Gly-Thr-Phe(2-CN)-Thr-Ser-Asp-Bip-Bip-NH2]
Emax: 101%
EC50 [2]: 7.7 nM

C[C@@H](O)[C@H](NC(=O)CNC(=O)[C@H](CCC(=O)O)NC(=O)C(C)(C)NC(=O)[C@@H](N)Cc1c[nH]cn1)C(=O)N[C@@](C)(Cc1ccccc1F)C(=O)N[C@H](C(=O)N[C@@H](CO)C(=O)N[C@@H](CC(=O)O)C(=O)N[C@@H](Cc1ccc(-c2ccccc2)cc1)C(=O)N[C@@H](Cc1ccc(-c2ccccc2)cc1)C(N)=O)[C@@H](C)O [RXL-101, His-Aib-Glu-Gly-Thr-α-Me-Phe(2-F)-Thr-Ser-Asp-Bip-Bip-NH2] (H-H[Aib]EGT[αMePhe(2-F)]TSD[Bip][Bip]-NH2)
Emax: 117%
Cα-methylation pEC50 contribution for position 6 (pEC50 of RXL-101 minus pEC50 of RXL-3000): 0.97

C[C@@H](O)[C@H](NC(=O)CNC(=O)[C@H](CCC(=O)O)NC(=O)C(C)(C)NC(=O)[C@@H](N)Cc1c[nH]cn1)C(=O)N[C@@H](Cc1ccc(O)cc1)C(=O)N[C@H](C(=O)N[C@@H](CO)C(=O)N[C@@H](CC(=O)O)C(=O)N[C@@H](Cc1ccc(-c2ccccc2)cc1)C(=O)N[C@@H](Cc1ccc(-c2ccccc2)cc1)C(N)=O)[C@@H](C)O [RXL-3021, His-Aib-Glu-Gly-Thr-Tyr-Thr-Ser-Asp-Bip-Bip-NH2] (H-H[Aib]EGTYTSD[Bip][Bip]-NH2)
Emax: 100%
EC50 [2]: 3 nM

C[C@H](NC(=O)[C@@H](NC(=O)CNC(=O)[C@H](CCC(=O)O)NC(=O)C(C)(C)NC(=O)[C@@H](N)Cc1c[nH]cn1)[C@@H](C)O)C(=O)N[C@H](C(=O)N[C@@H](CO)C(=O)N[C@@H](CC(=O)O)C(=O)N[C@@H](Cc1ccc(-c2ccccc2)cc1)C(=O)N[C@@H](Cc1ccc(-c2ccccc2)cc1)C(N)=O)[C@@H](C)O [RXL-3038, His-Aib-Glu-Gly-Thr-Ala-Thr-Ser-Asp-Bip-Bip-NH2] (H-H[Aib]EGTATSD[Bip][Bip]-NH2)
Emax: 37.4%
EC50 [1]: > 1000 nM
pEC50 (Table 4, Ala-scan peptides, 0% HSA): 5.55
decreased potency (Aib/Ala comparison): > 1000 fold

C[C@H](NC(=O)C(C)(C)NC(=O)[C@@H](N)Cc1c[nH]cn1)C(=O)NCC(=O)N[C@H](C(=O)N[C@@H](Cc1ccccc1F)C(=O)N[C@H](C(=O)N[C@@H](CO)C(=O)N[C@@H](CC(=O)O)C(=O)N[C@@H](Cc1ccc(-c2ccccc2)cc1)C(=O)N[C@@H](Cc1ccc(-c2ccccc2)cc1)C(N)=O)[C@@H](C)O)[C@@H](C)O [RXL-3003, His-Aib-Ala-Gly-Thr-Phe(2-F)-Thr-Ser-Asp-Bip-Bip-NH2]
Emax: 108%
EC50 [1]: 7.9 nM

C[C@@H](O)[C@H](NC(=O)CNC(=O)[C@H](CCC(=O)O)NC(=O)C(C)(C)NC(=O)C(C)(C)N)C(=O)N[C@@](C)(Cc1ccccc1F)C(=O)N[C@H](C(=O)N[C@@H](CO)C(=O)N[C@@H](CC(=O)O)C(=O)N[C@@H](Cc1ccc(-c2ccccc2)cc1)C(=O)N[C@@H](Cc1ccc(-c2ccccc2)cc1)C(N)=O)[C@@H](C)O [RXL-3030, Aib-Aib-Glu-Gly-Thr-α-Me-Phe(2-F)-Thr-Ser-Asp-Bip-Bip-NH2] (H-[Aib][Aib]EGT[αMePhe(2-F)]TSD[Bip][Bip]-NH2)
decreased potency by Aib substitution: < 10 fold
Emax: 112%
dpEC50 (contribution of Cα-methylation) (0% HSA): −0.26

C[C@H](NC(=O)[C@@H](N)Cc1c[nH]cn1)C(=O)N[C@@H](CCC(=O)O)C(=O)NCC(=O)N[C@H](C(=O)N[C@@H](Cc1ccccc1F)C(=O)N[C@H](C(=O)N[C@@H](CO)C(=O)N[C@@H](CC(=O)O)C(=O)N[C@@H](Cc1ccc(-c2ccccc2)cc1)C(=O)N[C@@H](Cc1ccc(-c2ccccc2)cc1)C(N)=O)[C@@H](C)O)[C@@H](C)O [RXL-3002, His-Ala-Glu-Gly-Thr-Phe(2-F)-Thr-Ser-Asp-Bip-Bip-NH2]
Emax: 102%
EC50 [1]: 0.2 nM

C[C@@H](O)[C@H](NC(=O)CNC(=O)[C@H](CCC(=O)O)NC(=O)C(C)(C)NC(=O)[C@@H](N)Cc1c[nH]cn1)C(=O)N[C@@H](Cc1ccccc1C(F)(F)F)C(=O)N[C@H](C(=O)N[C@@H](CO)C(=O)N[C@@H](CC(=O)O)C(=O)N[C@@H](Cc1ccc(-c2ccccc2)cc1)C(=O)N[C@@H](Cc1ccc(-c2ccccc2)cc1)C(N)=O)[C@@H](C)O [RXL-3012, His-Aib-Glu-Gly-Thr-Phe(2-CF3)-Thr-Ser-Asp-Bip-Bip-NH2]
Emax: 99.3%
EC50 [2]: 13.9 nM

C[C@@H](O)[C@H](NC(=O)CNC(=O)[C@H](CCC(=O)O)NC(=O)C(C)(C)NC(=O)[C@@H](N)Cc1c[nH]cn1)C(=O)N[C@@H](Cc1ccccc1Cl)C(=O)N[C@H](C(=O)N[C@@H](CO)C(=O)N[C@@H](CC(=O)O)C(=O)N[C@@H](Cc1ccc(-c2ccccc2)cc1)C(=O)N[C@@H](Cc1ccc(-c2ccccc2)cc1)C(N)=O)[C@@H](C)O [RXL-3011, His-Aib-Glu-Gly-Thr-Phe(2-Cl)-Thr-Ser-Asp-Bip-Bip-NH2]
Emax: 91.3%
EC50 [2]: 0.9 nM

C[C@@H](O)[C@H](NC(=O)CNC(=O)[C@H](CCC(=O)O)NC(=O)C(C)(C)NC(=O)[C@@H](N)Cc1c[nH]cn1)C(=O)N[C@@](C)(Cc1ccccc1)C(=O)N[C@H](C(=O)N[C@@H](CO)C(=O)N[C@@H](CC(=O)O)C(=O)N[C@@H](Cc1ccc(-c2ccccc2)cc1)C(=O)N[C@@H](Cc1ccc(-c2ccccc2)cc1)C(N)=O)[C@@H](C)O [RXL-3020, His-Aib-Glu-Gly-Thr-α-Me-Phe-Thr-Ser-Asp-Bip-Bip-NH2] (H-H[Aib]EGT[αMeF]TSD[Bip][Bip]-NH2)
Emax: 108%

C[C@H](N)C(=O)NC(C)(C)C(=O)N[C@@H](CCC(=O)O)C(=O)NCC(=O)N[C@H](C(=O)N[C@@H](Cc1ccccc1F)C(=O)N[C@H](C(=O)N[C@@H](CO)C(=O)N[C@@H](CC(=O)O)C(=O)N[C@@H](Cc1ccc(-c2ccccc2)cc1)C(=O)N[C@@H](Cc1ccc(-c2ccccc2)cc1)C(N)=O)[C@@H](C)O)[C@@H](C)O [RXL-3001, Ala-Aib-Glu-Gly-Thr-Phe(2-F)-Thr-Ser-Asp-Bip-Bip-NH2]
Emax: 108%
EC50 [1]: 21.9 nM

C[C@@H](O)[C@H](NC(=O)CNC(=O)[C@H](CCC(=O)O)NC(=O)C(C)(C)NC(=O)[C@@H](N)Cc1c[nH]cn1)C(=O)N[C@@](C)(Cc1ccccc1F)C(=O)N[C@H](C(=O)N[C@@H](CO)C(=O)N[C@@H](CC(=O)O)C(=O)NC(C)(C)C(=O)N[C@@H](Cc1ccc(-c2ccccc2)cc1)C(N)=O)[C@@H](C)O [RXL-3051, His-Aib-Glu-Gly-Thr-α-Me-Phe(2-F)-Thr-Ser-Asp-Aib-Bip-NH2] (H-H[Aib]EGT[αMePhe(2-F)]TSD[Aib][Bip]-NH2)
decreased potency by Aib substitution: ≥ 100 fold
Emax: 26.8%
dpEC50 (contribution of Cα-methylation) (0% HSA): −1.34
decreased potency (Aib/Ala comparison): > 10,000 fold
